Source: article PMC4721923 (PLoS ONE, 2015)
Like-named read-outs stand apart in the source and are kept apart here.

How the values were obtained:
Format in all cases: cell-based, human
Jurkat cells = test: Detection of apoptosis (annexin V/propidium iodide assay)
Description: Apoptosis was determined by incubating proliferating Jurkat cells with medium containing 1, 2, 4 or 5 at a concentration of 10 μM or 0.1% of DMSO (untreated control). After different periods of incubation (6, 24, 48 hours), samples were analyzed using the Annexin V-FITC apoptosis detection kit l (BD Biosciences, Heidelberg, Germany) according to the manufacturer’s protocol using 10^6 cells/mL. Cells were analyzed using a FACSCalibur flow cytometer (BD Biosciences, Heidelberg, Germany). The compensation was performed for each experiment with annexin V-FITC (530/30 BP filter) and propidium iodide (585/42 BP filter), respectively. At least 1 · 10^4 events were registered per sample and debris as well as cell aggregates were excluded by forward (FSC) versus side scatter (SSC) gates. Raw data were analyzed using FlowJo V10 software (Treestar Inc., Ashland, OR, USA).

[1] = tested on: U-937 cells (histiocytic lymphoma); test: Chemosensitivity assay (MTT-assay), U-937; conditions: 96 hours of incubation, mean ± SEM
Description: (§1) Depending on the characteristics of the cells, two different assays were performed. For adherently growing cells (HaCaT, HT-29, NCI-H460, SK-MEL-3, MG-63, Capan-1), cytotoxic and cytocidal effects were determined in the crystal violet assay, whereas for loosely adherent cells (LNCaP, SK-ES-1) and cells growing in suspension (HEL 92.1.7, Jurkat, U-937) the MTT-assay was used with minor modifications. In brief, 1.5 · 10^3 (HaCaT, HT-29, NCI-H460, SK-MEL-3, MG-63, Capan-1) or 5 · 10^3 (Jurkat, U-937, HEL92.1.7, LNCaP, SK-ES-1) cells per well were seeded into flat-bottom 96-well plates (Sarstedt, Nümbrecht, Germany). All compounds were used as solutions prepared in DMSO and tested at final concentrations (8 replicates per concentration) of 1, 3, 10, 30 and 50 μM. In case of the vehicle control and test compounds, the final DMSO concentration amounted to 0.1%. Absorbance was measured at 580 nm in a 96-well plate reader (GENios pro microplate reader, Tecan, Salzburg, Austria). Effects were quantified as previously described for both assays.

[2] = tested on: SK-MEL-3 cells (malignant melanoma); test: Chemosensitivity assay (crystal violet assay), SK-MEL-3; conditions: mean ± SEM
Description: as §1

[3] = tested on: HT-29 cells (colorectal adenocarcinoma); test: Chemosensitivity assay (crystal violet assay), HT-29; conditions: 96 hours of incubation, mean ± SEM
Description: as §1

p53 in NCI-H460 cells = test: p53 expression by immunoblotting, NCI-H460; conditions: NCI-H460 nuclear extracts, 24 hours
Description: The expression of the tumor suppressor p53 by NCI-H460 and HT-29 cells was determined after incubating the cells with compounds 1, 2, 4 and 5 at different concentrations for 24 hours. The cells (from a 10-cm culture dish, 70% confluency) were washed twice with PBS and harvested by scraping after addition of ice-cold buffer A (10 mM HEPES pH = 7.9, 10 mM KCl, 0.1 mM EDTA, 0.1 mM EGTA, protease inhibitor mix (Sigma-Aldrich)). After adding Nonidet P-40 (NP-40) (Sigma, Taufkirchen, Germany) to a final concentration of 1%, the cell suspensions were vortexed and subsequently centrifuged at 13000 g and 4°C for 30 seconds. The pellets were re-suspended in buffer B (buffer A + 400 mM NaCl, 1% NP-40) and gently agitated using a Sarmix M2000 (Sarstedt, Nümbrecht, Germany) at 4°C for 15 min, followed by centrifugation (13000 g, 4°C, 5 min; Microfuge; Eppendorf, Hamburg, Germany). The concentration of soluble protein was determined according to Bradford using the Bio-Rad Protein Assay (Bio-Rad Laboratories, Munich, Germany).
An amount of 30 μg total protein of each sample and 8 μL of a biotinylated molecular weight standard (1:6 dilution) (Cell Signaling, Danvers, MA, USA) was separated by SDS-PAGE (12% gel) and afterwards electroblotted (150 V, 30 min) to nitrocellulose membrane (Peqlab, Erlangen, Germany). To prevent unspecific binding, the membranes were treated with milk powder (5% (m/v) in buffer (150 mM NaCl, 20 mM Tris, 0.1% Tween 20, pH = 7.6)) before incubation with anti-p53 rabbit mAb (dilution 1:1000) (Cell Signaling) and anti-histone H2B Ab (dilution 1:1000) (Cell Signaling) as loading control at 4°C for 14 hours. The primary antibodies and the “protein ladder” were simultaneously detected with a horseradish peroxidase (HRP)-coupled donkey anti rabbit mAb (dilution 1:1000) (Santa Cruz biotechnology, Heidelberg, Germany) or the anti-biotin HRP-coupled antibody (dilution 1:5000) (Cell Signaling), respectively. The incubation with the secondary antibody was performed at room temperature for 1 hour. The bands were detected by […] using the Pierce ECL Western Blotting Substrate (Thermo Scientific, Dreieich, Germany). After exposure, the x-ray film (Amersham Hyperfilm ECL, GE Healthcare, München, Germany) was developed (CAWOMAT 2000 IR, CAWO, Schrobenhausen, Germany) and analyzed using a GS-710 imaging densitometer and Quantity One V. 4 software (Bio-Rad Laboratories, Munich, Germany).

NCI-H460 cells = test: Quantification of cell-associated compound by HPLC, NCI-H460; conditions: 30 μM, 10 minutes, mean ± SEM
Description: Accumulation of bendamustine and selected bendamustine esters by HT-29 and NCI-H460 cells was determined by HPLC. For this purpose, 1.5 · 10^6 cells/well were seeded into 6-well plates (Sarstedt, Nümbrecht, Germany). After two days of cultivation, the cells were incubated in PBS containing 30 μM of 1, 2, 4 or 5 and 200 μM of umbelliferone as internal standard at 37°C for 10 minutes. After removing the medium, the cells were washed three times with PBS. Untreated cells were detached with trypsin/EDTA and counted. The treated cells were harvested by adding 200 μL of ice-cold perchloric acid (1 M) and scraping. Subsequently, the samples were vortexed and sonicated (Branson 3200 ultrasonic cleaner; Branson, Danbury, USA) for 10 minutes. After 5 minutes of centrifugation (13000 g, 4°C), the supernatants were filtered (0.2 μm Phenex; Phenomenex, Aschaffenburg, Germany) and directly analyzed by HPLC with fluorescence detection according to a recently reported validated procedure. The normalization of the measured concentration to the cell count allowed for a calculation of the cell-associated amount of the respective test compound. Additionally, the ratio of cell-associated substance compared to the applied concentration (30 μM) was calculated based on an average cell volume of 3 pL.

[4] = tested on: MG-63 cells (osteosarcoma); test: Chemosensitivity assay (crystal violet assay), MG-63; conditions: for IC50: 96 hours of incubation, crystal violet assay, mean ± SEM
Description: as §1

[5] = Homo sapiens, SK-MEL3, 96 hours of incubation, read-out: IC50

Structure (SMILES) | effect on apoptosis compared to the control cells (Jurkat cells; 10 μM, regardless of the period of incubation (6, 24, 48 hours)) | IC50 [1] [µM] | IC50 ([1]; Homo sapiens, U-937, 96 h) [µM] | IC50 ([2]; 96 hours of incubation) | IC50 [2, 5] [µM] | IC50 [3] | IC50 ([3]; Homo sapiens, read-out: IC50) [µM] | p53 expression (p53 in NCI-H460 cells; 100 μM) | amount of cell-associated compound (NCI-H460 cells) [nmol/10^6 cells] | IC50 [4] [µM] | IC50 ([4]; Homo sapiens, MG-63, 96 h) [µM] | concentrations with cytocidal drug effects ([4]; kinetic assay, long-term exposure (S6 Fig)) | fraction of early apoptotic cells (Jurkat cells; 10 μM, 24 hours) | fraction of early apoptotic cells (Jurkat cells; 10 μM, 48 hours) [%] | fraction of secondary necrotic cells (Jurkat cells; 10 μM, 48 hours) | p53 expression (p53 in NCI-H460 cells; 10 μM) | fraction of early apoptotic cells (Jurkat cells; 10 μM, 6 hours) | cells either early apoptotic or secondary necrotic (Jurkat cells; 10 μM, 24 hours) | fraction of secondary necrotic cells (Jurkat cells; 10 μM, 24 hours) [%] | viability at 10 µM (Jurkat cells; Homo sapiens, Jurkat, 48 h, two days after treatment, read-out: viable cells) [%]
Cn1c(CCCC(=O)O)nc2cc(N(CCCl)CCCl)ccc21 [Compound 1, bendamustine, reference compound] | no effect | 83.4 ± 8.5 | > 80 | ineffective | > 100 | ineffective | > 100 | weakly induced | 0.03 ± 0.001 | 55.8 ± 1.9 | ~56 | above 30 μM |  |  |  |  |  |  |  | 
COC(=O)CCCc1nc2cc(N(CCCl)CCCl)ccc2n1C [Compound 2] |  |  | 1.8 ± 0.1 |  | 13.8 ± 0.4 |  | 9.4 ± 0.4 |  | 0.28 ± 0.06 |  | 1.9 ± 0.1 |  | approximately 10% | 15 | 20–25% | significantly induced |  |  |  | 
Cn1c(CCCC(=O)OCCN2CCOCC2)nc2cc(N(CCCl)CCCl)ccc21 [Compound 4] |  |  | 3.2 ± 0.96 |  | 20.9 ± 0.9 |  | 9 ± 0.5 |  | 0.59 ± 0.04 |  | 3.5 ± 0.1 |  | approximately 10% | 15 | 20–25% | significantly induced |  |  |  | 
Cn1c(CCCC(=O)OCCN2CCCC2)nc2cc(N(CCCl)CCCl)ccc21 [Compound 5] |  |  | 0.83 ± 0.19 |  | 0.83 ± 0.18 |  | 1.1 ± 0.1 |  | 1.89 ± 0.14 |  | 0.38 ± 0.06 |  | 20% |  | 70% | significantly induced | ~ 2.5% | Approximately 50% | 30 | ~15
